Measurements reported in ChEMBL document CHEMBL3526149, “Brain tissue binding of drugs: evaluation and validation of solid supported porcine brain membrane vesicles (TRANSIL) as a novel high-throughput method” (Drug Metab Dispos, 2011).

How the values were obtained:
[1] = Ratio of fraction unbound in Wistar rat brain homogenate at 5 uM after 5 hrs by equilibrium dialysis method to fraction unbound in solid supported porcine brain membrane vesicles at 5 uM by TRANSIL assay
[2] = Fraction unbound in Wistar rat brain homogenate at 5 uM after 5 hrs by equilibrium dialysis method
[3] = Percentage unbound in solid supported porcine brain membrane vesicles at 5 uM by TRANSIL assay; conditions: pig
[4] = Percentage unbound in solid supported porcine brain membrane vesicles at 5 uM using four compound cocktail after 5 hrs by TRANSIL assay; type: ADME, tissue-based, Sus scrofa; conditions: pig
[5] = Ratio, ratio of fraction unbound in solid supported porcine brain membrane vesicles at 5 uM dosed as discrete compounds after 5 hrs by TRANSIL assay to fraction unbound in solid supported porcine brain membrane vesicles at 5 uM using four compound cocktail after 5 hrs by TRANSIL assay; type: ADME, Sus scrofa; conditions: pig
[6] = Binding affinity to Wistar rat brain lipid by TRANSIL assay; type: ADME
[7] = Binding affinity to Wistar rat brain lipid assessed as percentage unbound by TRANSIL assay; type: ADME, tissue-based
[8] = Ratio of fraction unbound in solid supported porcine brain membrane vesicles at 5 uM by TRANSIL assay to fraction unbound in Wistar rat brain homogenate at 5 uM after 5 hrs by equilibrium dialysis method; type: ADME, tissue-based
[9] = biological target: Albumin (Rattus norvegicus, UniProt P02770); test: Binding affinity to Wistar rat serum albumin; type: ADME
Albumin, sequence (P02770 whole entry): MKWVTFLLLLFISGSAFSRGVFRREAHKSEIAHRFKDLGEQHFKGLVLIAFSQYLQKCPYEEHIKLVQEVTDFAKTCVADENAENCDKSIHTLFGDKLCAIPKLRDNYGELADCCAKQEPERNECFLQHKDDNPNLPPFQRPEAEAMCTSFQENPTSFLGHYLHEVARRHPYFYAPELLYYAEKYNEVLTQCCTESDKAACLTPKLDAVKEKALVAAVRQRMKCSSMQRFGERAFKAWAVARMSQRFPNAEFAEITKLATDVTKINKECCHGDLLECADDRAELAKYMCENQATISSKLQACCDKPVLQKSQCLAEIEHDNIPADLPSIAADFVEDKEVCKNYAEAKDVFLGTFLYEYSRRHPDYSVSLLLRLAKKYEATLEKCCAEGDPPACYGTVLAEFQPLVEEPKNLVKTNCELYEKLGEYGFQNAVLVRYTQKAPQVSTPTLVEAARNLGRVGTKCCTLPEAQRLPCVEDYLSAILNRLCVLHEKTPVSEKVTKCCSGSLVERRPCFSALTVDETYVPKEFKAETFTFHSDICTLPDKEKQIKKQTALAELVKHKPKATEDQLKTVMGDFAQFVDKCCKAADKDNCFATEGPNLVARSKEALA

[10] = solid supported porcine brain membrane vesicles

Row | Compound | Ratio [1] | fraction unbound at 5 h, 5 µM [2] | fraction unbound at 5 µM ([3]; Brain) | fraction unbound at 5 h, 5 µM [4] | Ratio [5] | fraction unbound at 5 µM [3, 10] | Kd [6] [nM] | fraction unbound [7] | Ratio [8] | Ratio ([5]; in vitro) | Kd [9] [µM]
1 | O=C1NC(=O)C(c2ccccc2)(c2ccccc2)N1 [PHENYTOIN] | 1.7 | 0.081 | 0.047 | – | – | – | – | – | – | – | –
2 | CC(NC(C)(C)C)C(=O)c1cccc(Cl)c1 (stereo not drawn) [BUPROPION] | 1 | 0.17 | – | 0.14 | 1.2 | 0.17 | – | – | – | – | –
3 | CCN(CC)CCNC(=O)c1cc(Cl)c(N)cc1OC [METOCLOPRAMIDE] | – | 0.36 | 0.295 | – | – | – | 88900 | 0.426 | – | – | –
4 | CCCC(C)(COC(N)=O)COC(=O)NC(C)C (stereo not drawn) [CARISOPRODOL] | – | 0.202 | – | – | – | 0.295 | – | – | 1.5 | – | –
5 | CN(C)CCCN1c2ccccc2Sc2ccc(Cl)cc21 [CHLORPROMAZINE] | – | 0.002 | 0.0022 | – | – | – | 184 | 0.0015 | – | – | –
6 | CCN1CCCC1CNC(=O)c1cc(S(N)(=O)=O)ccc1OC (stereo not drawn) [SULPIRIDE] | 2.6 | 0.63 | 0.24 | – | – | – | – | – | – | – | –
7 | CN(C)CCC=C1c2ccccc2CCc2ccccc21 [AMITRIPTYLINE] | 1.2 | 0.009 | – | 0.0071 | – | 0.0073 | 1010 | 0.0083 | – | 1 | 134
8 | CN(C)CCC=C1c2ccccc2C=Cc2ccccc21 [CYCLOBENZAPRINE] | – | 0.0073 | 0.01 | – | – | – | – | – | 1.4 | – | –
9 | NC(=O)N1c2ccccc2C=Cc2ccccc21 [CARBAMAZEPINE] | – | 0.119 | 0.132 | 0.26 | – | – | 24200 | 0.168 | – | – | –
10 | CC(=O)CC(c1ccccc1)c1c(O)c2ccccc2oc1=O (stereo not drawn) [WARFARIN] | – | – | – | – | – | – | 81400 | 0.405 | – | – | –
11 | O=C(CCCN1CCC(O)(c2ccc(Cl)cc2)CC1)c1ccc(F)cc1 [HALOPERIDOL] | – | 0.011 | 0.014 | 0.014 | – | – | 1560 | 0.0129 | 1.3 | 1 | 96.9
12 | O=c1n(CCCN2CCN(c3cccc(Cl)c3)CC2)nc2ccccn12 [TRAZODONE] | 1 | 0.055 | – | – | – | 0.057 | 5470 | 0.0437 | – | – | 7.95
13 | CC(C)NCC(O)COc1cccc2ccccc12 (stereo not drawn) [PROPRANOLOL] | 1.5 | 0.03 | – | 0.02 | – | 0.02 | – | – | – | 1 | –
14 | OCCOCCN1CCN(C(c2ccccc2)c2ccc(Cl)cc2)CC1 (stereo not drawn) [HYDROXYZINE] | – | 0.0102 | 0.021 | – | – | – | – | – | 2.1 | – | –
15 | COc1ccc(C(CN(C)C)C2(O)CCCCC2)cc1 (stereo not drawn) [VENLAFAXINE] | – | 0.21 | 0.123 | – | – | – | 38200 | 0.242 | – | – | –
16 | CN1CCN(CCCN2c3ccccc3Sc3ccc(C(F)(F)F)cc32)CC1 [TRIFLUOPERAZINE] | – | 0.0007 | 0.0018 | – | – | – | 392 | 0.0033 | – | – | –
17 | Cn1c(=O)c2c(ncn2C)n(C)c1=O [CAFFEINE] | 2 | 0.52 | 0.26 | – | – | – | – | – | – | – | –
18 | CC(C)Cc1ccc(C(C)C(=O)O)cc1 (stereo not drawn) [IBUPROFEN] | – | – | – | – | – | – | 52700 | – | – | – | –
19 | Cc1nc2n(c(=O)c1CCN1CCC(c3noc4cc(F)ccc34)CC1)CCCC2 [RISPERIDONE] | – | – | 0.057 | – | – | – | – | 0.121 | – | – | 43.8
20 | CSc1ccc2c(c1)N(CCC1CCCCN1C)c1ccccc1S2 (stereo not drawn) [THIORIDAZINE] | 3.3 | 0.001 | 0.0003 | – | – | – | 369 | 0.0031 | – | – | 6.69
21 | CNCCC=C1c2ccccc2CCc2ccccc21 [NORTRIPTYLINE] | 1.2 | 0.0046 | 0.004 | – | – | – | – | – | – | – | –
22 | Cc1ncc2n1-c1ccc(Cl)cc1C(c1ccccc1F)=NC2 [MIDAZOLAM] | – | 0.023 | 0.041 | 0.037 | 1.1 | – | – | – | 1.8 | – | –
23 | CNCCC(Oc1ccc(C(F)(F)F)cc1)c1ccccc1 (stereo not drawn) [FLUOXETINE] | 1.3 | 0.004 | – | – | – | 0.003 | 323 | 0.0027 | – | – | 36.1
24 | Fc1ccc([C@@H]2CCNC[C@H]2COc2ccc3c(c2)OCO3)cc1 [PAROXETINE] | 1.5 | 0.0039 | 0.0026 | – | – | – | – | – | – | – | –
25 | CCCCN1CCCCC1C(=O)Nc1c(C)cccc1C (stereo not drawn) [BUPIVACAINE] | 1.6 | 0.278 | – | 0.19 | – | 0.17 | – | – | – | 0.9 | –
26 | CN1CCN(C2=Nc3cc(Cl)ccc3Nc3ccccc32)CC1 [CLOZAPINE] | 1.5 | 0.011 | 0.0072 | 0.0092 | – | – | 775 | 0.0064 | – | 0.8 | 78.8
